Experimental data taken from patent US6602852B1, “Basic peptides and pharmaceutical compositions containing same” (NST NeuroSurvival Technologies, Ltd., priority 1998, dated 2003).
Where two headings read alike, the source gives them in different places.

Experiments:
[1] = tested on: clotting induced by negatively charged phospholipids in normal plasma
Procedure: The ability of NST300 compounds to inhibit coagulaton catalyzed by negatively—charged phospholipids was evaluated in a standard coagulation test of the Russell viper venom (RVV) assay. The RVV reagent directly activates factor x present in the plasma, thus promoting prothrombinase complex formation. This reagent is widely used as a standard phospholipid responsive clotting test. (Thiagarajan et al., Blood, 1986; 869-874).
The RVV reagent kit, containing RVV and negatively charged phospholipids, from Gradipore, Australia was used. The reactions were started by mixing 100 μl of RVV reagent, and 100 μl of quality control plasma collected from normal individuals (commercially available from Instrumentation Laboratory, Italy). Clotting time was determined as the time-point beyond which the continuously mixed reaction ingredients in the test tube, could no longer be aspirated with a pasteur pipette. Clotting time was measured independently by two separate researchers.

[2] = tested on: HeLa cells undergoing dopamine-induced apoptosis; settings: 750 nM
Procedure: HeLa cells were plated on tissue culture plates at a density of 3×10^6 cells/10 cm dish, and grown in a DMEM medium containing 10% FCS, as described in A. The cells were then incubated at 37° C. overnight, and then the medium was replaced with a medium containing 2% FCS and 500 μM of dopamine. 18 hours later, the medium was aspirated and discarded, and 10 ml of Phosphate Buffered Saline pH 7.4 (PBS) were added to the culture dish. The cells which were detached from the culture dish into the PBS were collected. These cells represent advanced apoptotic cells. The remaining cells which were attached to the culture dish were trypsinized by the addition of 2 ml of trypsin for 2 minutes at 37° C., followed by the addition of 10 ml of a medium containing 10% of FCS. The cells were then washed with PBS containing 2% Bovine Serum Albumin (BSA), and resuspended in TBS containing 2% BSA (TBS-BSA). These cells were regarded as early apoptotic cells. […] Only non-treated cells that were attached to the culture dish were used as control cells for the FACS analysis.
A set of 3 different cell types was taken:
The incubation with the NST300 compounds or control compound was performed in a final volume of 100 μl TBS-BSA, 5 μg/ml of propidium iodide (PI) and 750 nM of the tested compound or the control compound.
PI is a red fluorescent dye that stains DNA. […] Only cells that are in advanced apoptotic stages, or cells that have already died by apoptosis or necrosis will be permeable to PI and will be stained with the dye. […] The cells were then washed in 500 μl of cold TBS-BSA and centrifugated as before. The cells were then suspended in 100 μl of TBS-BSA containing streptavidin conjugated to fluorescein (FITC). […] Thereafter, the cells were washed three times in TBS-BSA and were taken for FACS analysis.
The FACS analysis was performed on a Beckton-Dickinson cell sorter, using lysis II software. Excitation was at 488 nm and the emission or FITC detection was at 535 nm and for PI detection at 585 nm.

[3] = tested on: HeLa S3 cells undergoing dopamine (DA)-induced apoptosis
Procedure: Said compounds were each dissolved in TBS (Tris Buffered Saline; 10 mM Tris PH 8.0; 150 mM NaCl), at a stock concentration of 10 mM.
HeLa S3 cells (ATCC CCL-2.2) were cultured on a glass chamber slide (Nunc) on a culture area of […]. Chamber slides were pre-coated with 1% gelatin (Sigma) Cells were seeded at a density of 8×10^4 cells/chamber, in a volume of 300 μl of culture medium [Dulbecco's Modified Eagle's Medium (DMEM) supplemented with 2 mM of L-Glutamine; 100 units/ml of Penicilin; 100 μg/ml of Streptomycin; 12.5 units/ml of Nystatin and 10% of Fetal Calf Serum (FCS)]. Following 24 hours of incubation the cells were treated with an apoptotic trigger [i.e. dopamine (DA), which is a well characterized model of apoptosis (Lou et al., J. Biol. Chem. 1998; 273:3756-3764)].
For the DA treatment, the culture medium was replaced by a low serum containing medium (2% FCS), with 500 μM of dopamine (from RBI, Mass., USA) for 18 hours.
The evaluation was performed by staining with Hoechst 33342 dye (Molecular probes). This blue fluorescent dye is rapidly permeable into cells and stains DNA. Hoechst 33342 was added to growing cultures at a concentration of 1 μg/ml and 20 minutes later, the cells were visualized under UV light microscopy. The relative number of apoptotic cells with condensed or fragmented chromatin was then evaluated and compared with non-apoptotic cells which characteristically show a pale and diffuse staining. Photomicrographs were taken for documentation. […] This method was used to evaluate the level of apoptosis in cultured cells prior to binding to the NST300 compounds.
Apoptotic, as well as control untreated cells were grown as specified above and washed twice with TBS. The slides were then incubated with the NST300 compound at concentrations of 250-750 nM for 60 minutes, in a total volume of 100 μl. Slides were then dipped into a Couplin Jar containing 50 ml of TBS, and then incubated with 50 ng/ml of a sterptavidin reagent labeled with FITC (Fluorescein Isothiocyanate Conjugated, from Jackson Immunolaboratory U.S.A.). […] The slides were then washed with TBS as above and were then mounted with Fluoroguard antifade reagent (from Biorad Calif., USA).
The binding was then evaluated with a fluorescent microscope (IX70; Olympus), using a NIBA filter (Narrow Interference Blue A from Olympus).

[4] = tested on: procoagulant activity of apoptotic HeLa S3 cells; settings: 0.5 μM; for effect on procoagulant effect of apoptotic cells: FIG. 5a
Procedure: In the standard APTT test, clot formation is triggered by recalcification of plasma and addition of cephalin, i.e. negatively-charged phospholipids. Time until clot formation was measured as described in Example 3. […] In the modified APTT test, used in the present study, the addition of negatively-charged phospholipids (cephalin) was replaced by addition of apoptotic cells.
The cultured medium was discarded, and cells that were loosely attached to the growing surface, were collected in PBS, as described in Example 2B. These cells were washed and resuspended in TBS, and were regarded as advanced apoptotic cells. Equal numbers of apoptotic or control non-treated cells (10^5) in a volume of 100 μl, were mixed with 100 μl of 25 mM of CaCl2 and the clotting time was measured. […] Inhibition of their procoagulant activity by NST300 compounds was tested following pre-incubation of apoptotic cells with the different NST300 compounds.
Pre-incubation of equal numbers of apoptotic or control non-treated cells (10^5) with NST300 compounds was for 10 minutes at room temperature in a final volume of 100 μl. The compounds were used at concentration of 0.5 μM. The results can be seen in FIG. 5a.

[5] = biological target: anionic phospholipid membranes; settings: cited from earlier work
[6] = tested on: apoptotic hepatocytes; type: in vivo; settings: data not shown
Procedure: All animals were killed 2 hr after administration of antibody followed by organ removal. Heart, lung and liver were collected.
Formalin fixed paraffin-embedded tissues were sectioned (5 μm) for staining with Hematoxylin/Eosin or other techniques.
Endogenous peroxidase activity was blocked by incubation with 3% H2O2.
After washing with PBS, staining was developed with 3,3-diaminobenzidine tetrahydrochloride (DAB), and counterstained with Hematoxylin.
Liver sections from different lobes were used for detection of stained apoptotic cells compared to normal cells.
The percentage of apoptotic cells in the fields was estimated by evaluating parallel sections stained with Hematoxylin/Eosin. Analysis was performed blindly, since the pathologist performing the histological evaluation was unaware of the assignment of mice to the treatment or control group.

[7] = rabbits, intravenous injection; cited from earlier work
[8] = tested on: Human Umbilical Vein Endothelial Cells (HUVEC); settings: 500 ng of compound, 40 minutes
Procedure: HUVEC (CC-2517, obtained from Clonetics, Walkersville, Md.) were grown on tissue culture flasks in Endothelial cell medium (EGM-2 Bulletkit, CC 3162, Clonetics). Mid-confluent cultures were harvested using Trypsine/EDTA solution (CC-5012, Clonetics). The cells were rinsed twice with PBS containing 2% BSA and kept on ice. Samples of 10^6 cells were tested for binding.
The reactions were incubated at room temperature for 40 minutes and then 400 μl of TBS-BSA were added and cells were collected by centrifugation at 3000×g for 3 minutes. Cells were washed in 1 ml of TBS-BSA and centrifuged as before and then suspended in 100 μl of TBS-BSA containing streptavidin conjugated to flourescein (FITC) for detection of the bound biotinylated compound. […] Thereafter, 400 μl of TBS-BSA were added and cells were centrifuged and washed again with 1 ml of TBS-BSA as before and then resuspended in 400 μl of TSS and taken for FACS analysis.
The FACS analysis was performed on Beckton-Dickinson cell sorter, using lysis II software. Excitation was at 488 nm and emission for FITC detection was a 535 nm.
A dot plot analysis was done for each treatment.

Row | Substance | increase of clotting time by a factor as compared to control ([1]; 0.5-50 μM, control clotting time 40 seconds) | detection of early apoptotic cells ([2]; FIG. 3c) | early apoptotic cells double stained also with PI ([2]; early apoptotic cells) [%] | binding intensity: ratio of FITC mean value of apoptotic cells to that of control cells ([2]; early apoptotic cells, FIG. 3b) [fold] | total FITC/total PI ratio ([2]; advanced apoptotic cells) | total FITC/total PI ratio ([2]; early apoptotic cells) | staining of advanced apoptotic cells ([3]; 750 nM, FIG. 2c) | staining of cells in early apoptotic stages ([3]; 750 nM, FIG. 2c) | staining of control non-treated HeLa cells ([3]; 750 nM, fluorescent microscopy) | effect on procoagulant effect of apoptotic cells [4] | increase of clotting time by a factor ([4]; apoptotic cells) | Kd [5] [nM] | staining pattern when exogenously added to the apoptotic cells [6] | clearance within 5 minutes [7] [%] | anti-coagulant effect ([1]; RVV test, FIG. 4) | cells FITC positive [8] [%] | staining of DA-induced apoptotic HeLa cells ([3]; 250-750 nM compound, streptavidin-FITC, fluorescent microscopy) | effect on procoagulant effect of apoptotic cells ([4]; listed as NST 301-C)
1 | Myristate-GGGKKKKKRFSFKKSFKLSGFSFKKNKKK (SEQUENCE ID NO. 1)-(biotin) [NST301] | 2.6 | potent detector | 43 | 4 | 1.2 | 2.2 | intense labeling | light, peripheral staining | few of them were stained, and very faintly | fully reversing | 2 | – | – | – | – | – | – | –
2 | Annexin V: 320 amino acid protein of the annexin family, Ca2+-dependent binding to anionic phospholipid membranes | – | – | – | – | – | – | – | – | – | – | – | 0.01 to 1 | same pattern of staining | 90 | – | – | – | –
3 | GGGKKKKKRFSFKKSFKLSGFSFKKNKKK (SEQUENCE ID NO. 3) (Biotin)-OH [NST301-C, reference compound] | – | – | – | – | – | – | – | – | – | mild effect | – | – | – | – | Significant, though moderate effect | 7 | did not show any significant binding | very modest effect
